Results published in patent US8912169B2, “Beta-lactamase inhibitors” (VenatoRx Pharmaceuticals, Inc., priority 2012, dated 2014).

Tests used:
Type in all cases: biochemical
[1] = biological target: T1, VIM-2 (Escherichia coli, UniProt Q5U7L7); assay: β-lactamase enzyme inhibition, VIM-2; conditions: substrate Nitrocefin 100 μM, 486 nm; read-out: Class B VIM-2 IC50
T1 construct: made in house; host or cells: E. coli BL21(DE3)
Method in brief: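 Purified VIM-2 (Q sepharose, 50 mM Hepes pH 7.5, >90% purity) preincubated with inhibitor 15 min at 37° C, then nitrocefin added at 100 μM final. Hydrolysis followed at 486 nm for 10 min; IC50 from initial rates versus inhibitor-free control wells.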

[2] = biological target: T2, SHV-5 (Klebsiella pneumoniae, UniProt P0A3M1); assay: β-lactamase enzyme inhibition, SHV-5
T2 construct: made in house; host or cells: E. coli BL21(DE3)
Method in brief: (§1)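 Native untagged β-lactamases expressed in E. coli BL21(DE3) and purified, then pre-incubated with inhibitor 15 min at 37 °C. Hydrolysis was followed by absorbance: 100 μM nitrocefin at 486 nm for p99 AmpC and OXA-1; imipenem at 300 nm for KPC-2; cefotaxime at 260 nm for SHV-5. IC50 from initial-rate inhibition versus uninhibited controls.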

[3] = biological target: T3, p99 AmpC (Enterobacter cloacae, UniProt P05364); assay: β-lactamase enzyme inhibition, p99 AmpC
T3 construct: made in house; host or cells: E. coli BL21(DE3)
Method in brief: as §1

[4] = biological target: T4, KPC-2 (Klebsiella pneumoniae, UniProt Q9F663); assay: β-lactamase enzyme inhibition, KPC-2; conditions: substrate imipenem, 300 nm; read-out: Class A KPC-2 IC50
T4 construct: made in house; host or cells: E. coli BL21(DE3)
Method in brief: as §1

[5] = biological target: T5, OXA-1 (Escherichia coli, UniProt P13661); assay: β-lactamase enzyme inhibition, OXA-1; conditions: substrate Nitrocefin 100 μM, 486 nm; read-out: Class D OXA-1 IC50
T5 construct: made in house; host or cells: E. coli BL21(DE3)
Method in brief: as §1

SMILES | IC50 [1] [nM] | IC50 [2] [nM] | IC50 [3] [nM] | IC50 [4] [nM] | IC50 [5] [nM]
NCCNC(=O)NCCN(C(=O)NCCN)C1CC(CC(=O)N[C@H]2Cc3cccc(C(=O)O)c3OB2O)C1 (stereo partly drawn) [Example 57, (R)-3-(2-(3-(3-(2-aminoethyl)-1-(2-(3-(2-aminoethyl)ureido)ethyl)ureido)cyclobutyl)acetamido)-2-hydroxy-3,4-dihydro-2H-benzo[e][1,2]oxaborinine-8-carboxylic acid] | 100 to 1000 | < 100 | < 100 | < 100 | < 100
NCCNC(=O)NC1CC(CC(=O)N[C@H]2Cc3cccc(C(=O)O)c3OB2O)C1 (stereo partly drawn) [Example 58, (R)-3-(2-(3-(3-(2-aminoethyl)ureido)cyclobutyl)acetamido)-2-hydroxy-3,4-dihydro-2H-benzo[e][1,2]oxaborinine-8-carboxylic acid] | 100 to 1000 | < 100 | < 100 | < 100 | < 100
NCCNC(=O)N[C@H]1CC[C@H](CC(=O)N[C@H]2Cc3cccc(C(=O)O)c3OB2O)CC1 [Example 59, (R)-3-(2-(trans-4-(3-(2-aminoethyl)ureido)cyclohexyl)acetamido)-2-hydroxy-3,4-dihydro-2H-benzo[e][1,2]oxaborinine-8-carboxylic acid] | 100 to 1000 | < 100 | < 100 | < 100 | < 100
NCCCN[C@H]1CC[C@H](CC(=O)N[C@H]2Cc3cccc(C(=O)O)c3OB2O)CC1 [Example 60, (R)-3-(2-(trans-4-(3-aminopropylamino)cyclohexyl)acetamido)-2-hydroxy-3,4-dihydro-2H-benzo[e][1,2]oxaborinine-8-carboxylic acid] | < 100 | < 100 | < 100 | < 100 | < 100
O=C(C[C@H]1CC[C@H](NCCNCCO)CC1)N[C@H]1Cc2cccc(C(=O)O)c2OB1O [Example 61, (R)-2-hydroxy-3-(2-(trans-4-(2-(2-hydroxyethylamino)ethylamino)cyclohexyl)acetamido)-3,4-dihydro-2H-benzo[e][1,2]oxaborinine-8-carboxylic acid] | < 100 | < 100 | < 100 | < 100 | < 100
C[C@H](N)CNCCN[C@H]1CC[C@H](CC(=O)N[C@H]2Cc3cccc(C(=O)O)c3OB2O)CC1 [Example 62, (R)-3-(2-(trans-4-(2-((S)-2-aminopropylamino)ethylamino)cyclohexyl)acetamido)-2-hydroxy-3,4-dihydro-2H-benzo[e][1,2]oxaborinine-8-carboxylic acid] | < 100 | < 100 | < 100 | < 100 | < 100
CN(CCN)[C@H]1CC[C@H](CC(=O)N[C@H]2Cc3cccc(C(=O)O)c3OB2O)CC1 [Example 63, (R)-3-(2-(trans-4-((2-aminoethyl)(methyl)amino)cyclohexyl)acetamido)-2-hydroxy-3,4-dihydro-2H-benzo[e][1,2]oxaborinine-8-carboxylic acid] | < 100 | < 100 | < 100 | < 100 | < 100
CNCCN[C@H]1CC[C@H](C(CO)C(=O)N[C@H]2Cc3cccc(C(=O)O)c3OB2O)CC1 (stereo partly drawn) [Example 64, (R)-2-hydroxy-3-(3-hydroxy-2-(trans-4-(2-(methylamino)ethylamino)cyclohexyl)propanamido)-3,4-dihydro-2H-benzo[e][1,2]oxaborinine-8-carboxylic acid] | < 100 | < 100 | < 100 | 100 to 1000 | < 100
N[C@@H](CO)CN[C@H]1CC[C@H](CC(=O)N[C@H]2Cc3cccc(C(=O)O)c3OB2O)CC1 [Example 65, (R)-3-(2-(trans-4-((R)-2-amino-3-hydroxypropylamino)cyclohexyl)acetamido)-2-hydroxy-3,4-dihydro-2H-benzo[e][1,2]oxaborinine-8-carboxylic acid] | < 100 | < 100 | < 100 | < 100 | < 100
CSCCN[C@H]1CC[C@H](CC(=O)N[C@H]2Cc3cccc(C(=O)O)c3OB2O)CC1 [Example 66, (R)-2-hydroxy-3-(2-(trans-4-(2-(methylthio)ethylamino)cyclohexyl)acetamido)-3,4-dihydro-2H-benzo[e][1,2]oxaborinine-8-carboxylic acid] | 1000 to 10000 | < 100 | < 100 | < 100 | < 100
N[C@H](CO)CN[C@H]1CC[C@H](CC(=O)N[C@H]2Cc3cccc(C(=O)O)c3OB2O)CC1 [Example 67, (R)-3-(2-(trans-4-((S)-2-amino-3-hydroxypropylamino)cyclohexyl)acetamido)-2-hydroxy-3,4-dihydro-2H-benzo[e][1,2]oxaborinine-8-carboxylic acid] | 100 to 1000 | < 100 | < 100 | < 100 | < 100
NCC(=O)N[C@H]1CC[C@H](CC(=O)N[C@H]2Cc3cccc(C(=O)O)c3OB2O)CC1 [Example 68, (R)-3-(2-(trans-4-(2-aminoacetamido)cyclohexyl)acetamido)-2-hydroxy-3,4-dihydro-2H-benzo[e][1,2]oxaborinine-8-carboxylic acid] | 100 to 1000 | < 100 | < 100 | < 100 | < 100
O=C(C[C@H]1CC[C@H](N(Cc2ncc[nH]2)Cc2ncc[nH]2)CC1)N[C@H]1Cc2cccc(C(=O)O)c2OB1O [Example 69, (R)-3-(2-(trans-4-(bis((1H-imidazol-2-yl)methyl)amino)cyclohexyl)acetamido)-2-hydroxy-3,4-dihydro-2H-benzo[e][1,2]oxaborinine-8-carboxylic acid] | < 100 | < 100 | < 100 | < 100 | < 100
O=C(C[C@H]1CC[C@H](NCc2cnc[nH]2)CC1)N[C@H]1Cc2cccc(C(=O)O)c2OB1O [Example 70, (R)-3-(2-(trans-4-((1H-imidazol-5-yl)methylamino)cyclohexyl)acetamido)-2-hydroxy-3,4-dihydro-2H-benzo[e][1,2]oxaborinine-8-carboxylic acid] | 100 to 1000 | < 100 | < 100 | < 100 | < 100
CC(C)NCCN[C@H]1CC[C@H](CC(=O)N[C@H]2Cc3cccc(C(=O)O)c3OB2O)CC1 [Example 71, (R)-2-hydroxy-3-(2-(trans-4-(2-(isopropylamino)ethylamino)cyclohexyl)acetamido)-3,4-dihydro-2H-benzo[e][1,2]oxaborinine-8-carboxylic acid] | < 100 | < 100 | < 100 | < 100 | < 100
O=C(C[C@H]1CC[C@H](NCCNc2ncccn2)CC1)N[C@H]1Cc2cccc(C(=O)O)c2OB1O [Example 72] | 100 to 1000 | < 100 | < 100 | < 100 | < 100
O=C(C[C@H]1CC[C@H](NCCNC2CCCC2)CC1)N[C@H]1Cc2cccc(C(=O)O)c2OB1O [Example 73, (R)-3-(2-(trans-4-(2-(cyclopentylamino)ethylamino)cyclohexyl)acetamido)-2-hydroxy-3,4-dihydro-2H-benzo[e][1,2]oxaborinine-8-carboxylic acid] | < 100 | < 100 | < 100 | < 100 | < 100
